The source of these data is patent publication US8946266B2, “Substituted triazole and imidazole derivatives as gamma secretase modulators” (Janssen Pharmaceuticals, Inc., priority 2009, dated 2015).

One test concerns Aβ42. In words: γ-secretase-modulating activity, Method 2: Aβ42 Alphalisa in supernatant of SKNBE2 cells carrying APP 695-wild type (Table 3b). Type of test: cell-based. The note with it: overnight. How it is done:
(§1) Screening was carried out using SKNBE2 cells carrying the APP 695-wild type, grown in Dulbecco's Modified Eagle's Medium/Nutrient mixture F-12 (DMEM/NUT-mix F-12) (HAM) provided by Invitrogen (cat no. 10371-029) containing 5% Serum/Fe supplemented with 1% non-essential amino acids, 1-glutamine 2 mM, Hepes 15 mM, penicillin 50 U/ml (units/ml) en streptomycin 50 μg/ml. Cells were grown to near confluency.
(§2) The screening was performed using a modification of the assay as described in Citron et al (1997) Nature Medicine 3: 67. Briefly, cells were plated in a 384-well plate at 10^4 cells/well in Ultraculture (Lonza, BE12-725F) supplemented with 1% glutamine (Invitrogen, 25030-024), 1% non-essential amino acid (NEAA), penicillin 50 U/ml en streptomycin 50 μg/ml in the presence of test compound at different test concentrations. The cell/compound mixture was incubated overnight at 37° C., 5% CO2. The next day the media were assayed by two sandwich immuno-assays, for Aβ42 and Aβtotal.
(§3) Aβtotal and Aβ42 concentrations were quantified in the cell supernatant using the Aphalisa technology (Perkin Elmer). Alphalisa is a sandwich assay using biotinylated antibody attached to streptavidin coated donorbeads and antibody conjugated to acceptor beads. In the presence of antigen, the beads come into close proximity. The excitation of the donor beads provokes the release of singlet oxygen molecules that trigger a cascade of energy transfer in the acceptor beads, resulting in light emission. To quantify the amount of Aβ42 in the cell supernatant, monoclonal antibody specific to the C-terminus of Aβ42 (JRF/cAβ42/26) was coupled to the receptor beads and biotinylated antibody specific to the N-terminus of Aβ (JRF/AβN/25) was used to react with the donor beads. To quantify the amount of Aβ total in the cell supernatant, monoclonal antibody specific to the N-terminus of Aβ (JRF/AβN/25) was coupled to the receptor beads and biotinylated antibody specific to the mid region of Aβ (biotinylated 4G8) was used to react with the donor beads.
To obtain the values reported in Table 3b, the data were calculated as percentage of the maximum amount of amyloid Beta 42 measured in the absence of the test compound.
(§4) The sigmoidal dose response curves were analyzed using non-linear regression analysis with percentage of the control plotted against the log concentration of the compound. A 4-parameter equation was used to determine the IC50.
(§5) The IC50 values are shown in Table 3b (Aβtot means Aβtotal).

The subject of another test is Aβtotal. Description: γ-secretase-modulating activity, Method 2: Aβtotal Alphalisa in supernatant of SKNBE2 cells carrying APP 695-wild type (Table 3b). Type of test: cell-based. The note with it: overnight, read-out: IC50 Aβtot. The procedure:
as §1, §2, §3, §4, §5

Read-outs that look alike come from different tables or passages of the source.

In the case of `COc1nc(-c2nc(C)n(C(C)c3ccc(F)cc3)n2)ccc1-n1cnc(C)c1` (racemic) [Compound 69], the IC50 in the test on Aβ42 was 1260 nM; with Aβtotal, more than 10000 nM.
The like results for `COc1cc(-c2nc(N3CCC(c4cccc(C(F)(F)F)c4)C3)n(C(C)C)n2)ccc1-n1cnc(C)c1` (racemic) [Compound 74] were, in that order, 251 nM and 6460 nM.
The matching figures for `COc1cc(-c2nc(N3CCCC(C(F)(F)F)C3)n(C(C)C)n2)ccc1-n1cnc(C)c1` (racemic) [Compound 75]: 676 nM and 6460 nM.
The like results for `COc1cc(-c2nc(N3CCCC3)n(C(C)c3ccc(F)cc3)n2)ccc1-n1cnc(C)c1` (racemic) [Compound 76] were, in that order, 851 nM and 12600 nM.
With `COc1cc(-c2nc(N3CCCC(c4ccccc4)C3)n(C)n2)ccc1-n1cnc(C)c1` (racemic) [Compound 78], the IC50 in the test on Aβ42 was 50 nM; in the test on Aβtotal, 8510 nM.
The like results for `CCC(C)n1nc(-c2ccc(-n3cnc(C)c3)c(OC)c2)nc1Nc1cc(C(F)(F)F)ccc1F` (racemic) [Compound 179] were, in that order, 19 nM and 5010 nM.
Turning to `COc1cc(-c2nc(C(C)(C)O)n(C(C)c3ccc(F)cc3)n2)ccc1-n1cnc(C)c1` (racemic) [Compound 300], the figures for the IC50 in the test with Aβ42 and with Aβtotal were 871 nM and more than 10000 nM, respectively.
Take `COc1cc(-c2nc(Nc3cc(OC4CCOC4)ccc3F)n(C)n2)ccc1-n1cnc(C)c1` (racemic) [Compound 358]: the IC50 in the test on Aβ42 was found to be 62 nM.
Turning to `COc1cc(-c2n[nH]c(-c3ccc(F)cc3)n2)ccc1-n1cnc(C)c1` [Compound 4], the IC50 in the test with Aβ42 (Homo sapiens) is 646 nM; in the test on Aβtotal (Homo sapiens), more than 10000 nM.
The like results for `COc1cc(-c2nc(-c3ccc(F)cc3)n(C(C)C)n2)ccc1-n1cnc(C)c1` [Compound 5] were, in that order, 170 nM and more than 10000 nM.
The like results for `COc1cc(-c2n[nH]c(-c3cccc(C(F)(F)F)c3)n2)ccc1-n1cnc(C)c1` [Compound 6] were, in that order, 309 nM and more than 10000 nM.
Regarding `COc1cc(-c2nc(-c3cccc(C(F)(F)F)c3)n(C)n2)ccc1-n1cnc(C)c1` [Compound 7], the figures for the IC50 in the test with Aβ42 and with Aβtotal were 117 nM and more than 10000 nM, respectively.
`COc1cc(-c2nc(-c3cccc(C(F)(F)F)c3)nn2C)ccc1-n1cnc(C)c1` [Compound 8]: the IC50 in the test on Aβ42 is 4270 nM; in the test with Aβtotal, more than 10000 nM.
The like results for `COc1cc(-c2nc(Nc3ccc(F)cc3C(F)(F)F)nn2C)ccc1-n1cnc(C)c1` [Compound 16] were, in that order, 309 nM and more than 10000 nM.
For `COc1cc(-c2nc3n(n2)CCCc2ccccc2-3)ccc1-n1cnc(C)c1` [Compound 17], the IC50 with Aβ42 (Homo sapiens) was 407 nM; in the test with Aβtotal (Homo sapiens), more than 10000 nM.
In the case of `COc1cc(-c2nc(C)n(-c3ccccc3C(F)(F)F)n2)ccc1-n1cnc(C)c1` [Compound 19], the IC50 was 162 nM with Aβ42 (Homo sapiens) and more than 10000 nM in the test on Aβtotal (Homo sapiens).
Regarding `COc1cc(-c2nc(Cc3ccc(F)cc3)n(C)n2)ccc1-n1cnc(C)c1` [Compound 22], the values for the IC50 in the test with Aβ42 and with Aβtotal were 479 nM and more than 10000 nM, respectively.
The matching figures for `COc1cc(-c2nc(-c3ccccc3Cl)nn2C)ccc1-n1cnc(C)c1` [Compound 23]: 5010 nM and more than 10000 nM.
The matching figures for `COc1cc(-c2nc(C)n(-c3cccc(C(F)(F)F)c3)n2)ccc1-n1cnc(C)c1` [Compound 30]: 295 nM and more than 10000 nM.
As to `COc1cc(-c2nc(C(C)C)n(-c3ccc(F)cc3)n2)ccc1-n1cnc(C)c1` [Compound 31], the IC50 was 447 nM with Aβ42 and more than 10000 nM with Aβtotal.
Take `COc1cc(-c2n[nH]c(C3CCCCC3)n2)ccc1-n1cnc(C)c1` [Compound 33]: the IC50 in the test on Aβ42 is 269 nM; in the test on Aβtotal it was more than 10000 nM.
The like results for `COc1cc(-c2nc(C3CCCCC3)n(C)n2)ccc1-n1cnc(C)c1` [Compound 34] were, in that order, 240 nM and more than 10000 nM.
The like results for `COc1cc(-c2nc(N3CC(C)OC(C)C3)n(C)n2)ccc1-n1cnc(C)c1` (stereo not shown) [Compound 35] were, in that order, 776 nM and more than 10000 nM.
The matching figures for `COc1cccc(-c2nc(-c3ccc(-n4cnc(C)c4)c(OC)c3)nn2C)c1` [Compound 36]: 575 nM and more than 10000 nM.
Take `COc1cccc(-c2nc(-c3ccc(-n4cnc(C)c4)c(OC)c3)nn2C(C)C)c1` [Compound 37]: the values for the IC50 with Aβ42 and with Aβtotal were 85 nM and 11200 nM, respectively.
The matching figures for `COc1cc(-c2nc(-c3ccccc3C(F)(F)F)n(C)n2)ccc1-n1cnc(C)c1` [Compound 38]: 158 nM and more than 10000 nM.
The matching figures for `COc1cc(-c2nc(-c3ccc(F)cc3)n(C)n2)ccc1-n1cnc(C)c1` [Compound 40]: 355 nM and more than 10000 nM.
The like results for `COc1cc(-c2nc(-c3ccc(F)cc3)n(C3CCCC3)n2)ccc1-n1cnc(C)c1` [Compound 41] were, in that order, 407 nM and more than 10000 nM.
Turning to `COc1cc(-c2nc(-c3ccc(-n4cnc(C)c4)c(OC)c3)nn2C)ccc1Cl` [Compound 43], the IC50 was 148 nM with Aβ42 and more than 10000 nM in the test on Aβtotal.
The like results for `COc1cc(-c2nc(/C=C/c3ccc(F)cc3)n(C)n2)ccc1-n1cnc(C)c1` [Compound 45] were, in that order, 85 nM and more than 10000 nM.
The like results for `COc1cc(-c2nc(Cc3ccc(F)cc3C(F)(F)F)n(C)n2)ccc1-n1cnc(C)c1` [Compound 46] were, in that order, 138 nM and 8510 nM.
For the compound `COc1cc(-c2nc(C3(c4ccc(F)cc4)CC3)n(C)n2)ccc1-n1cnc(C)c1` [Compound 47], the IC50 in the test with Aβ42 stood at 302 nM; in the test with Aβtotal it was 3240 nM.
For `COc1cc(-c2nc(Nc3cc(F)c(F)c(F)c3)n(C)n2)ccc1-n1cnc(C)c1` [Compound 48], the IC50 with Aβ42 stood at 245 nM; in the test on Aβtotal, 6920 nM.
As for `COc1cc(-c2nc(Nc3ccc(F)cc3C(F)(F)F)n(C(C)C)n2)ccc1-n1cnc(C)c1` [Compound 49], the IC50 amounted to 40 nM in the test with Aβ42 and 6030 nM with Aβtotal.
`COc1cc(-c2nc(Nc3cc(C)ccc3F)n(C)n2)ccc1-n1cnc(C)c1` [Compound 350]: in the test with Aβ42, the IC50 was determined as 44 nM.
The compound `COc1cc(-c2nc(Nc3cc(C)ccc3C(F)(F)F)n(C)n2)ccc1-n1cnc(C)c1` [Compound 351] showed an IC50 in the test on Aβ42 of 28 nM.
The same measure, in the same setting: the figure for `COc1cc(-c2nc(Nc3ccc(C)cc3F)n(C)n2)ccc1-n1cnc(C)c1` [Compound 352] is 60 nM.
The same measure, in the same setting: the figure for `CCOc1ccc(F)c(Nc2nc(-c3ccc(-n4cnc(C)c4)c(OC)c3)nn2C)c1` [Compound 354] is 22 nM; for `COCCOc1ccc(F)c(Nc2nc(-c3ccc(-n4cnc(C)c4)c(OC)c3)nn2C)c1` [Compound 355] it is 135 nM.
Same read-out and setting: in the case of `COc1cc(-c2nc(Nc3cc(OCC4CC4)ccc3F)n(C)n2)ccc1-n1cnc(C)c1` [Compound 356] it was 20 nM; in that of `COc1cc(-c2nc(Nc3cc(C(C)(C)C)ccc3F)n(C)n2)ccc1-n1cnc(C)c1` [Compound 357], 7 nM.
`COc1nc(-c2nc3n(n2)CCC[C@@H]3c2ccc(F)cc2C)ccc1-n1cnc(C)c1` [Compound 360] showed an IC50 with Aβ42 of 240 nM.
The same measure, in the same setting: in the case of `COc1cc(-c2nc3n(n2)C(C)CCC3c2ccc(F)cc2C)ccc1-n1cnc(C)c1` (stereo not shown) [Compound 363] it was 407 nM; in that of `COc1ccc(F)c(C2CCCn3nc(-c4ccc(-n5cnc(C)c5)c(OC)c4)nc32)c1` (stereo not shown) [Compound 364], 83 nM.
Take `COc1cc(-c2nc(C3CCc4ccccc4N3)n(C)n2)ccc1-n1cnc(C)c1` (stereo not shown) [Compound 365]: the IC50 with Aβ42 (Homo sapiens) turned out to be 447 nM.
`COc1cc(-c2nc(C3CCc4ccccc4N3C)n(C)n2)ccc1-n1cnc(C)c1` (stereo not shown) [Compound 366]: the IC50 with Aβ42 (Homo sapiens) is 513 nM.
Compound `COc1cc(-c2nc(Nc3ccccc3OC(C)C)n(C)n2)ccc1-n1cnc(C)c1` [Compound 367] returned an IC50 with Aβ42 of 78 nM.
On the same count and under the same terms, in the case of `COc1nc(-c2nc3n(n2)CCC(C)C3c2ccc(F)cc2)ccc1-n1cnc(C)c1` (stereo not shown) [Compound 368] it was 66 nM; in that of `COc1cc(-c2nc3n(n2)CCC(C)C3c2ccc(F)cc2)ccc1-n1cnc(C)c1` (stereo not shown) [Compound 369], 123 nM.
The same measure, in the same setting: the figure for `COc1nc(-c2nc3n(n2)CCOC3c2cc(C(F)(F)F)ccc2C)ccc1-n1cnc(C)c1` (stereo not shown) [Compound 370] is 36 nM; for `COc1cc(-c2nc3n(n2)CCOC3c2cc(C(F)(F)F)ccc2C)ccc1-n1cnc(C)c1` (stereo not shown) [Compound 371] it is 40 nM; for `COc1nc(-c2nc3n(n2)CCOC3c2cc(OC(F)(F)F)ccc2F)ccc1-n1cnc(C)c1` (stereo not shown) [Compound 374] it is 62 nM.
